We go through 5 compounds from article PMC5402304, “Oxoaporphine Metal Complexes (Co^II, Ni^II, Zn^II) with High Antitumor Activity by Inducing Mitochondria-Mediated Apoptosis and S-phase Arrest in HepG2” (Scientific Reports, 2017).

What all share (assay type): cell-based, human
The test system of test [1] is HepG2. Description: MTT cytotoxicity assay, HepG2. The conditions noted are these: for inhibitive ratio: HepG2, 20 μmol/L, 48 h; for IC50: HepG2, 48 h, MTT. The method, then:
(§1) The in vitro cytotoxicity of OD, 1–3 and the corresponding metal salts were determined by MTT assay towards a panel of human tumor cells including HepG2, T-24, BEL-7404, MGC80-3, SK-OV-3/DDP and normal HL-7702 cells. As the positive control, cisplatin was dissolved at a concentration of 1 mM in 0.154 M NaCl[32].
(§2) The human tumor cell lines (BEL-7404, HepG2, MGC80–3, T-24, SK-OV-3/DDP and HeLa cells) and the human normal liver cell line HL-7702 were obtained from Shanghai Cell Bank in Chinese Academy of Sciences. Cells were cultured in Dulbecco’s modified Eagle’s medium (DMEM) or RPMI-1640 medium, which supplemented with 10% fetal bovine serum (FBS) and 100 U/mL penicillin and streptomycin. Cells were cultured at 37 °C in a humidified atmosphere with 5% CO2/95% air. Tested compounds (2.0 mM) were prepared as DMSO stock solution before they were diluted to working concentrations by PBS buffer (containing 0.5% DMSO), while cisplatin dissolved in 0.9% sodium chloride solution was used as positive controls.
(§3) Cells in their logarithmic phase were seeded in 96-well plates with 5.5 × 10^3/180 μL per well for 24 h. Then 20 μL of compounds at various concentrations were added to each well to achieve final concentrations of 1.25, 2.5, 5.0, 10.0, and 20.0 μM. All the cells were incubated with test compounds for another 48 h before MTT assay. Control wells contained media with 0.5% DMSO. After 48 h of cultivation, 10 μL of MTT (5 mg/mL in PBS) was added to each well, and cells were incubated at 37 °C for 6 h. The contents in the wells were pipetted out carefully, and the formazan crystals formed were dissolved in 100 μL of DMSO, and the absorbance was measured by enzyme labeling instrument with 490 nm/630 nm double wavelength measurement. The IC50 value was defined as a drug concentration killing 50% cells in comparison with untreated controls, which was calculated by the Bliss method (n = 5). All tests were repeated in at least three independent trials.
Background: Tetrazolium dyes change colour on reduction, which living cells bring about.

Test [2] deals with HepG2. Description: Cell apoptosis assay by flow cytometry, Annexin V-FITC/PI. As to conditions: HepG2, 5.0 μM, 24 h. The method, then: The quantitative analysis of apoptotic HepG2 induced by 1–3 (1.0, 2.0 and 5.0 μM) and their corresponding metal salts (5.0 μM) after 24 h treatment, were investigated by flow cytometry and Annexin V-FITC/PI double staining. As depicted in Figs 7 and S6, 1–3 caused a significant increase in apoptotic cells comparing to the untreated cells.
Cell cycle progression and apoptosis were determined by flow cytometric analysis. (a) Cell cycle arrest assay: HepG2 cells in their logarithmic phase were plated into 50 mL plates at a final density of 5−6 × 10^6 cells/well overnight, then they were treated with various doses (0.25, 0.5 and 1.0 μM) of 1–3 for another 24 h. Cells were trypsinized, collected, and fixed in ice-cold 75% ethanol at −20 °C overnight. After centrifugation, the fixed cells were rinsed with ice-cold phosphate buffered saline (PBS), and resuspended in 0.5 mL of PBS containing 100 μg/mL RNase, 50 μg/mL propidium iodide (PI) in the dark for 5−10 min. The cell cycle distribution was analyzed by FACS Calibur flow cytometer (BD) and calculated using ModFIT LT software. (b) Apoptosis assay: 1 × 10^5 HepG2 cells were plated in 6-well plates, after incubation for 24 h with complexes 1–3 at 1.0, 2.0 and 5.0 μM, cells were collected, and Apoptosis Detection kit FITC Annexin V was used to analyze the cell apoptosis according to the manufacturer’s instructions.
Background: In flow cytometry, cells or beads pass a laser one at a time.

Test [3] concerns SK-OV-3/DDP. Description: MTT cytotoxicity assay, SK-OV-3/DDP. As to conditions: 48 h; for IC50: SK-OV-3/DDP, MTT; for inhibitive ratio: SKOV-3/DDP, 20 μmol/L. The method, then:
as §1, §2, §3

In test [4] the test system is caspase-3. Description: Caspase-3 activation by flow cytometry (CaspGLOW). The conditions noted are these: HepG2, 1.0 μM, 24 h; control 4.2%. The method, then: (§4) Caspase family is closely related to the cell apoptosis via the mitochondrial pathway, especially caspases-3, -8 and -9. To better understand the antitumor mechanisms, it needs to confirm whether caspase-3, -8 and -9 are activated when the tumor cells are treated with 1–3.
(§5) The measurement of caspase-3, -8 and -9’s activities was performed by CaspGLOW fluorescein active caspase-3, -8 and -9 staining kit. HepG2 cells were treated with 1 μM 1–3 for 24 h, harvested at a density of 1 × 10^6 cells/mL, and then suspended in 300 μL volume with PBS. To the suspension, 1 μL of caspase-3 inhibitor (FITC-DEVD-FMK), caspase-8 inhibitor (FITC-IETD-FMK) or caspase-9 inhibitor (FITC-LEHD-FMK) was consequently added and incubated for 1 h at 37 °C in 5% CO2 incubator. The cells were then examined by a FACSAria II flow cytometer equipped with a 488 nm argon laser. The results were represented as the percent change on the activity compared with the control.

Test [5] deals with BEL-7404. Nature of the test: MTT cytotoxicity assay, BEL-7404. The conditions noted are these: for inhibitive ratio: BEL-7404, 20 μmol/L, 48 h; for IC50: BEL-7404, 48 h, MTT. The method, then: as §1, §2, §3
Test [6] relates to HepG2 cells. Nature of the test: Comet assay for DNA damage. On the set-up: unit not given here. The conditions noted are these: HepG2, 1.0 μM, 24 h. The method, then:
After the observation of significant S-phase arrest caused by 1–3, the study of DNA damage assay is necessary. The single cell gel electrophoresis technique (comet assay) is a simple, sensitive, reliable, and rapid method to detect DNA damage in eukaryotic cell[39]. As shown in Table 3 and Fig. 6, 1–3 at 1.0 μM induced DNA damage (fragmentation or unwinding) appeared as fluorescent comets with remarkable increase of tails size, especially for 3.
The comet assay is a simple method for measuring DNA strand breaks in cells. The comet assay reagent kit was purchased from Trevigen, and the experiment was carried out according to the manufacturer’s instructions. After treatment with OD and 1–3 at 1.0 μM, HepG2 cells were harvested and suspended at 1 × 10^6 Hep-G2 cells/mL in PBS. The cells suspension was mixed with melted LM agarose at a ratio of 1:10 (v/v). An aliquot (75 μL) of the mixture was immediately pipetted onto the slide (Comet Slide TM). After refrigeration for 30 min, the slide was immersed in pre-chilled lysis solution and left on ice for 60 min, followed by immersing in freshly prepared alkaline solution (300 mM NaOH, 1 mM EDTA, pH > 13) for 60 min on ice in darkness. After DNA unwinding, the slide was subjected to alkaline solution for electrophoresis in a Savant ps 250 system set at 300 mA and 1 volt/cm for 30 min. After electrophoresis, the slide was rinsed with distilled H2O, fixed in 70% ethanol for 5 min and air-dried overnight. DNA was stained with SYBR Green I (Trevigen) and visualized under a fluorescence microscope (Nikon, Eclipse E600).

Test [7] relates to caspase-9. Description: Caspase-9 activation by flow cytometry (CaspGLOW). As to conditions: HepG2, 1.0 μM, 24 h; control 1.9%. The method, then:
as §4, §5

The subject of test [8] is HL-7702. Nature of the test: MTT cytotoxicity assay, normal liver cells HL-7702. As to conditions: 48 h; for inhibitive ratio: HL-7702, 20 μmol/L; for IC50: HL-7702 normal liver cells, MTT. The method, then:
as §1, §2, §3

In test [9] the test system is T-24. Description: MTT cytotoxicity assay, T-24. The conditions noted are these: for inhibitive ratio: T-24, 20 μmol/L, 48 h; for IC50: T-24, 48 h, MTT. The method, then:
as §1, §2, §3

For test [10], the system named is MGC80-3. Description: MTT cytotoxicity assay, MGC80-3. The conditions noted are these: for inhibitive ratio: MGC80-3, 20 μmol/L, 48 h; for IC50: MGC80-3, 48 h, MTT. The method, then:
as §1, §2, §3

Test [11] has as its system caspase-8. Nature of the test: Caspase-8 activation by flow cytometry (CaspGLOW). The conditions noted are these: HepG2, 1.0 μM, 24 h; control 1.8%. The method, then: as §4, §5

As a reminder, the IC50 is the concentration needed to halve the response being measured. In the case of [Ni(OD)2(CH3OH)2](ClO4)2 [Complex 2], the inhibitive ratio in test [1] turned out to be 87.68 ±0.92%; in test [3], 84.44±0.65%; in test [5], 69.38±0.65%; in test [8], 72.34±0.22%; in test [9] it was 82.31±0.60%; in [10] it was 71.86±0.28%. Further, the IC50 in test [1] was 200 ± 90 nM; in [3] it was 180 ± 30 nM; in test [5], 9660 ± 350 nM; in [8] it was 5350 ± 340 nM; in test [9] it was 230 ± 130 nM; in test [10], 2860 ± 290 nM. Also, in [2], the “population of apoptotic cells” value is listed as 26.1%. The “proportion of activated caspase-3” value in test [4] is 39.9%. Besides, the Comet length in [6] is 99.56 ± 10.57. Also, the Olive tail moment in [6] was determined as 20.56 ± 7.54. The Tail length in [6] is reported as 45.69 ± 8.27. In addition, in test [6], the Tail moment came to 29.52 ± 8.66. The “proportion of activated caspase-9” value in [7] was 36.0%. Further, the “proportion of activated caspase-8” value in test [11] worked out at 36.7%.
As for [Co(OD)2(H2O)2](ClO4)2 [Complex 1], the inhibitive ratio is 88.34± 1.03% in test [1]; 78.17±1.69% in test [3]; 63.96±0.78% in test [5]; 56.73±0.14% in test [8]; 85.35±0.73% in [9]; 61.54±0.33% in test [10]. Moreover, the IC50 in test [1] was 660 ± 110 nM; in test [3] it was 260 ± 30 nM; in [5] it was 8980 ± 150 nM; in test [8], 8110 ± 550 nM; in test [9], 450 ± 170 nM; in test [10], 1380 ± 140 nM. The “population of apoptotic cells” value in test [2] amounted to 33.1%. Also, in [4], the “proportion of activated caspase-3” value turned out to be 45.1%. In test [6], this compound showed a Comet length of 65.45 ± 6.54. In test [6], this compound returned an Olive tail moment of 3.67 ± 2.09. In addition, the Tail length in [6] was 8.01 ± 4.98. The compound also gave a Tail moment in test [6] of 4.65 ± 1.34. Besides, the “proportion of activated caspase-9” value in test [7] is on record as 27.7%. Moreover, in [11], the “proportion of activated caspase-8” value stood at 35.3%.
Regarding `[Ni+2].[O-][Cl+3]([O-])([O-])[O-].[O-][Cl+3]([O-])([O-])[O-]` [Ni(ClO4)2, reference compound], the inhibitive ratio in test [1] is 32.57±0.29%; in [3], 11.25±0.12%; in test [5], 32.31±0.07%; in test [8], 50.14±0.06%; in test [9] it was 37.86±0.19%; in [10], 16.35±0.09%.
On to `[O-][Cl+3]([O-])([O-])[O-].[O-][Cl+3]([O-])([O-])[O-].[Zn+2]` [Zn(ClO4)2, reference compound], for which the inhibitive ratio in test [1] is 30.94±0.39%; in test [3], 12.33±0.05%; in test [5], 24.07±0.15%; in test [8], 43.18±0.19%; in test [9], 28.19±0.13%; in test [10], 17.63±0.07%.
Take `[Co+2].[O-][Cl+3]([O-])([O-])[O-].[O-][Cl+3]([O-])([O-])[O-]` [Co(ClO4)2, reference compound]: the inhibitive ratio in [1] amounted to 32.87±0.13%; in [3] it was 21.74±0.03%; in test [5], 23.29±0.09%; in test [8], 45.91±0187%; in test [9], 36.23±0.09%; in [10], 24.74±0.03%.
